Measurements: ChEMBL document CHEMBL3352063, “Transition state mimetics of the Plasmodium export element are potent inhibitors of Plasmepsin V from P. falciparum and P. vivax” (J Med Chem, 2014)
Values joined by “and” are separate entries in the source; they are usually repeats but may differ in a detail not shown here. Identical values can stand only once. Square brackets hold non-standard residues; d marks the D form. Peptide text beside a SMILES is read from it. * marks the point of attachment. Sta = CC(C)C[C@H](N)[C@@H](O)CC(=O)O; NHPhenethyl = c1ccc(CCN*)cc1; Cbz = O=C(OCc1ccccc1)*; NHBn = c1ccc(CN*)cc1; Bz = O=C(c1ccccc1)*; GABA = NCCCC(=O)O

Experiments:
Cathepsin D = Cathepsin D (Homo sapiens, UniProt P07339); experiment: Inhibition of human cathepsin D assessed as cleavage of wtKAHRP fluorogenic substrate
Plasmepsin V [1] = biological target: Plasmepsin V (Plasmodium falciparum (isolate 3D7), UniProt Q8I6Z5); experiment: Inhibition of Plasmodium falciparum plasmepsin V assessed as cleavage of wtKAHRP fluorogenic substrate
[2] = biological target: Plasmepsin V (Plasmodium falciparum (isolate 3D7)) (UniProt Q8I6Z5); experiment: Inhibition of Plasmodium falciparum plasmepsin V assessed as cleavage of wtKAHRP fluorogenic substrate at 1 uM
Beta-secretase 1 = Beta-secretase 1 (Homo sapiens, UniProt P56817); experiment: Inhibition of human BACE1 assessed as cleavage of TRF substrate
[3] = biological target: Plasmepsin V (Plasmodium falciparum (isolate 3D7)) (UniProt Q8I6Z5); experiment: Inhibition of plasmepsin V in Plasmodium falciparum trophozoite expressing PfEMP3-GFP infected erythrocyte assessed as PEXEL processing at 20 uM by immunoblotting analysis
HepG2 = experiment: Cytotoxicity against human HepG2 cells assessed as cell death after 48 hrs by Cell Titer-Glo assay; format: cell-based; settings: HepG2, 48 h
Plasmodium falciparum = experiment: Antiplasmodial activity against Plasmodium falciparum 3D7 infected in human O positive erythrocyte after 72 hrs; format: functional, organism-based; settings: 3D7, 72 h
Plasmepsin V [4] = biological target: Plasmepsin V (Plasmodium vivax, UniProt A0A0H4FQ60); experiment: Inhibition of Plasmodium vivax plasmepsin V by fluorogenic PEXEL cleavage assay
[5] = biological target: Plasmepsin V (Plasmodium vivax) (UniProt A0A0H4FQ60); experiment: Inhibition of Plasmodium vivax plasmepsin V at 1 uM by fluorogenic PEXEL cleavage assay
Plasmepsin V (Plasmodium vivax), sequence (A0A0H4FQ60 as listed by the source): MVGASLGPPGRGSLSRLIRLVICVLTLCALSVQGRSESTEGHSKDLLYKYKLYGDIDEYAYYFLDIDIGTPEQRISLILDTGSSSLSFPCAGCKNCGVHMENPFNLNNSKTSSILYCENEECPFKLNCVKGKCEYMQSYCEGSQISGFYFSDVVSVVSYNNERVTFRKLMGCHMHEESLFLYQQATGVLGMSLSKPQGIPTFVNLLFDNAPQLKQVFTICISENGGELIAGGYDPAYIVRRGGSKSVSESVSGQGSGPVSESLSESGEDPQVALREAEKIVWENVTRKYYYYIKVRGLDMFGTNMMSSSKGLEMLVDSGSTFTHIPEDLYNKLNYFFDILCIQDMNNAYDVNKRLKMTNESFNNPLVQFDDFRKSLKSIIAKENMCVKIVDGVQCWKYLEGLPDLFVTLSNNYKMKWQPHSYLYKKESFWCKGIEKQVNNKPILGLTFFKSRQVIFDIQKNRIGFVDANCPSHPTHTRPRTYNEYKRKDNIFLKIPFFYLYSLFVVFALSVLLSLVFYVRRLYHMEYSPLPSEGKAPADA

Plasmepsin V (Plasmodium falciparum (isolate 3D7), UniProt Q8I6Z5), sequence (Q8I6Z5 whole entry): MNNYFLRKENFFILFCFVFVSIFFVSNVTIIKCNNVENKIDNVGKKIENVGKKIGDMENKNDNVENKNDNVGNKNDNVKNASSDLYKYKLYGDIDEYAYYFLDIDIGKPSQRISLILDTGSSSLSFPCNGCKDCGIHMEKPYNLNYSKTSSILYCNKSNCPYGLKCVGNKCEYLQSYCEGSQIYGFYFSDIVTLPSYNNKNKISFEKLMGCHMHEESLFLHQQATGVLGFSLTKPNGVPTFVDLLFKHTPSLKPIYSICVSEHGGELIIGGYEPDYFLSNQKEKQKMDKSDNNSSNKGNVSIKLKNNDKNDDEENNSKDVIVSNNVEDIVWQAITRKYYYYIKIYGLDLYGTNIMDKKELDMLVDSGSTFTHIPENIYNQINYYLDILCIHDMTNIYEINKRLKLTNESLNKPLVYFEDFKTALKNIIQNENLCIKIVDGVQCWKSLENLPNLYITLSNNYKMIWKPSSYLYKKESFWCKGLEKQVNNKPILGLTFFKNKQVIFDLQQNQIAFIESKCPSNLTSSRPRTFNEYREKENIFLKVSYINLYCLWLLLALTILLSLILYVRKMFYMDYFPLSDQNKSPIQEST
Plasmepsin V (Plasmodium falciparum (isolate 3D7)), sequence (Q8I6Z5 whole entry, looked up): as the sequence (Q8I6Z5 whole entry) above
Beta-secretase 1, sequence (P56817 whole entry): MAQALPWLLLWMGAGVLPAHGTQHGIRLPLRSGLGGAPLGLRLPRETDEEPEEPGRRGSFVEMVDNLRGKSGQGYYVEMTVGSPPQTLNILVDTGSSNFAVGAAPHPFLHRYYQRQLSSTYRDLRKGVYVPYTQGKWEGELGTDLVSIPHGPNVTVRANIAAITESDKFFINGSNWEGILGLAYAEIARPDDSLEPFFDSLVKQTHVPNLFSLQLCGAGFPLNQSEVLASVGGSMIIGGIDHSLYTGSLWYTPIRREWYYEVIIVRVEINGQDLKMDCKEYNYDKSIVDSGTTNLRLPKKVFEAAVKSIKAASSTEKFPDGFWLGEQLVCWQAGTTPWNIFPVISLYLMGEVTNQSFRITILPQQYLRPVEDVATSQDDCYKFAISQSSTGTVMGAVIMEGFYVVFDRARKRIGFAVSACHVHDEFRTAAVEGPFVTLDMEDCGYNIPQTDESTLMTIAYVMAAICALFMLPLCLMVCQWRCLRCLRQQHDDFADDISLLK
Cathepsin D, sequence (P07339 65-162 limits assumed): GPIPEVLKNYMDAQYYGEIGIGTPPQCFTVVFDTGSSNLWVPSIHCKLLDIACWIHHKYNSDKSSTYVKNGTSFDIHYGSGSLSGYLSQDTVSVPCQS
Cathepsin D, sequence (P07339 169-412 limits assumed): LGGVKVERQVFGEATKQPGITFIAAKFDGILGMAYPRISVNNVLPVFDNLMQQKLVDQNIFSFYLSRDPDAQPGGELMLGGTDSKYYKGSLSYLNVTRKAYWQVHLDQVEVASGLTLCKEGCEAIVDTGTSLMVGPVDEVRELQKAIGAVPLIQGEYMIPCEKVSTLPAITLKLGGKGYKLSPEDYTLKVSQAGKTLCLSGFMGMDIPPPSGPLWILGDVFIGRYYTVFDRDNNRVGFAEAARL
Plasmepsin V (Plasmodium vivax, UniProt A0A0H4FQ60), sequence (A0A0H4FQ60 whole entry): as the sequence (A0A0H4FQ60 as listed by the source) above

SMILES | IC50 (Cathepsin D) [µM] | IC50 (Plasmepsin V [1]) [µM] | inhibition [2] | IC50 (Beta-secretase 1) [µM] | Activity [3] [OD/mm2] | EC50 (HepG2) [µM] | EC50 (Plasmodium falciparum) [µM] | IC50 (Plasmepsin V [4]) [µM] | inhibition [5] [%]
CC(C)C[C@H](NC(=O)[C@H](C)NC(=O)[C@H](CCCNC(=N)N)NC(=O)OCc1ccccc1)[C@@H](O)CC(=O)N(C)CCc1ccc(Cl)cc1 | > 100 | 2.01 | 20% | > 100 |  |  |  |  | 
CC(C)C[C@H](NC(=O)[C@H](C)NC(=O)[C@H](CCCCNC(=N)N)NC(=O)OCc1ccccc1)[C@@H](O)CC(=O)NC1CCCCC1 |  | > 20 |  |  |  |  |  |  | 
CC(C)C[C@H](NC(=O)[C@H](C)NC(=O)[C@H](CCCNC(=N)N)NC(=O)OCc1ccccc1)[C@@H](O)CC(=O)NCCc1ccc(Cl)cc1 | > 100 | 0.348 |  | > 100 |  |  |  |  | 
CC(C)C[C@H](NC(=O)[C@H](C)NC(=O)[C@H](CCCNC(=N)N)NC(=O)OCc1ccccc1)[C@@H](O)CC(=O)NC(C)c1ccccc1 (mixture of isomers) | > 100 | 0.569 | 56% | > 100 |  |  |  |  | 
CC[C@H](C)[C@H](NC(=O)[C@H](C)NC(=O)[C@H](CCCNC(=N)N)NC(=O)OCc1ccccc1)[C@@H](O)CC(=O)NC1CCCCC1 |  | > 20 |  |  |  |  |  |  | 
CC(C)C[C@H](NC(=O)[C@H](C)NC(=O)[C@H](CCCNC(=N)N)NS(=O)(=O)c1ccccc1)[C@@H](O)CC(=O)NCCc1ccccc1 | > 100 | 0.378 | 78% | > 100 | 0.31 | > 50 | 16.3 |  | 
CC(C)C[C@H](NC(=O)[C@@H](NC(=O)[C@H](CCCNC(=N)N)NS(=O)(=O)Cc1ccccc1)C(C)C)[C@@H](O)CC(=O)NCCc1ccccc1 | 32 | 0.019 |  | > 100 | 2.76 | > 50 | 2.5 | 0.024 | 
CC(C)C[C@H](NC(=O)[C@H](CCCNC(=N)N)NC(=O)OCc1ccccc1)C(=O)N[C@@H](CC(C)C)[C@@H](O)CC(=O)NC1CCCCC1 | 5.1 | 0.077 |  | > 100 | 0.26 | > 50 | 8.9 |  | 
CC(=O)N[C@@H](CCCNC(=N)N)C(=O)N[C@@H](C)C(=O)N[C@@H](CC(C)C)[C@@H](O)CC(=O)NCCCC(N)=O (Ac-RA[Sta][GABA]-NH2) | > 100 | 0.865 |  | > 100 |  |  |  |  | 
CC(C)C[C@H](NC(=O)[C@H](C)NC(=O)[C@H](CCc1ccccc1)NC(=O)OCc1ccccc1)[C@@H](O)CC(=O)NC1CCCCC1 | 0.043 | > 20 |  | > 100 |  |  |  |  | 
CC(C)C[C@H](NC(=O)[C@H](C)NC(=O)[C@H](CCCNC(=N)N)NC(=O)OCc1ccccc1)[C@@H](O)CC(=O)NCc1ccccc1 (Cbz-Arg-Ala-[Sta]-NHBn) | > 100 | 0.53 | 60% | > 100 |  |  |  |  | 
CC(C)C[C@H](NC(=O)[C@H](Cc1ccccc1)NC(=O)[C@H](CCCNC(=N)N)NC(=O)OCc1ccccc1)[C@@H](O)CC(=O)NC1CCCCC1 | 4.8 | 0.23 |  | > 100 |  |  |  |  | 
CC(C)C[C@H](NC(=O)[C@H](C)NC(=O)[C@H](CCCNC(=N)N)NC(=O)c1ccccc1)[C@@H](O)CC(=O)NCCc1ccccc1 (Bz-Arg-Ala-[Sta]-NHPhenethyl) | > 100 | 0.774 | 62% | > 100 |  |  |  |  | 
CC(=O)N[C@@H](CCCNC(=N)N)C(=O)N[C@@H](C)C(=O)N[C@@H](CC(C)C)[C@@H](O)CC(=O)N[C@@H](CCC(N)=O)C(N)=O (Ac-RA[Sta]Q-NH2) | > 100 | 0.556 |  | > 100 |  |  |  |  | 
CC(C)C[C@H](NC(=O)[C@H](C)NC(=O)[C@H](CCCNC(=N)N)NC(=O)OCc1ccccc1)[C@@H](O)CC(=O)NC1Cc2ccccc2C1 | > 100 | 0.772 | 66% | > 100 |  |  |  |  | 
C[C@H](NC(=O)[C@H](CCCNC(=N)N)NC(=O)OCc1ccccc1)C(=O)N[C@@H](CC1CCCCC1)[C@@H](O)CC(=O)NC1CCCCC1 |  | > 20 |  |  |  |  |  |  | 35
CC(C)C[C@H](NC(=O)[C@H](C)NC(=O)[C@H](CCCNC(=N)N)NS(=O)(=O)Cc1ccccc1)[C@@H](O)CC(=O)NCCc1ccccc1 | > 100 | 0.625 | 89% | > 100 |  |  |  |  | 
CC(C)C[C@H](NC(=O)[C@H](C)NC(=O)[C@H](CCCNC(=N)N)NC(=O)OCc1ccccc1)[C@@H](O)CC(=O)NCCc1ccccc1 (Cbz-Arg-Ala-[Sta]-NHPhenethyl) | 29 | 0.622 | 79% | > 100 |  |  |  |  | 
C[C@H](NC(=O)[C@H](CCCNC(=N)N)NC(=O)OCc1ccccc1)C(=O)N[C@@H](Cc1ccccc1)[C@@H](O)CC(=O)NC1CCCCC1 |  | > 20 |  |  |  |  |  |  | 
CC(C)C[C@H](NC(=O)[C@H](C)NC(=O)[C@H](CCCNC(=N)N)NC(=O)OCc1ccccc1)[C@@H](O)CC(=O)NC1CCCCC1 | > 100 | 0.614 | 54% and 51% | > 100 | 0.2 | > 50 | 34.6 |  | 
